{"source": "patent US11654195B2", "about": "“Eco-friendly smart photosensitizer and photo-stem cell therapy product comprising same” (priority 2019, dated 2023)", "test_system": "HeLa cells", "experiment": "Confirmation of location of nanosphere in cells (confocal microscope)", "format": "cell-based", "settings": "HeLa cells 1×10^5, 1.25 μg/ml", "description": "In order to observe cancer cell targeting of nanospheres of the biocompatible material sample in which the hydroxypropyl methylcellulose of Example 1 was bonded to porfimer sodium by an ester bond, that is, the accumulation location and accumulation rate in cancer cells, HeLa cells (1×10^5 cells) were treated with each of 1.25 μg/ml of the nanospheres of the biocompatible material sample in which the hydroxypropyl methylcellulose prepared in Example 1 was bonded to porfimer sodium by an ester bond and 1.25 μg/ml of unmodified porfimer sodium as a control and then the location in cells over time was observed using a confocal microscope."}
{"substance": "porfimer sodium [unmodified porfimer sodium]", "values": [{"measurement": "location in cells over time", "value": "located at different sites in cells"}]}
